The experiment concerns Plasmodium falciparum. Briefly: GSK_TCMDC: Inhibition of Plasmodium falciparum 3D7 in whole erythrocytes, using parasite LDH activity as an index of growth. It counts as functional, organism-based. As to conditions: Plasmodium falciparum, 3D7.

As to `CN(c1ccccc1C(=O)Nc1cc(Cl)ccc1Oc1ccccc1)S(=O)(=O)c1ccccc1`, the XC50 was found to be 742 nM.

In the case of `O=c1cc(NCCCNCc2ccccc2-c2ccccc2)[nH]c2ccccc12`, the XC50 was 975 nM. Consider `c1ccc2c(NCCCCCCCCCNc3c4ccccc4nc4ccccc34)c3ccccc3nc2c1`, for which the XC50 was 298 nM. With `CCOc1ncccc1CN1CCC(N2CCc3cc(NC(=O)c4ccco4)ccc32)C1` (configuration not stated) the figure was 758 nM; with `CN1CCN(CCCSc2ccc3c(c2)ncn3-c2cc(OCc3ccccc3C(F)(F)F)c(C(N)=O)s2)CC1`, 439 nM.

Compound `COc1ccc(-c2ccccc2CNc2nc(NCCc3ccc(O)cc3)nc(N3CCNCC3)n2)cc1` returned an XC50 of 1080 nM. With `COc1ccc(CNCc2cccc(-c3cccc(-c4nc5ccccc5[nH]4)c3)c2)cc1` the figure was 368 nM; with `CN(C)c1c(CNCCCCCCNCc2ccc3ccccc3c2N(C)C)ccc2ccccc12`, 463 nM; with `O=C(Cc1cc(=O)oc2cc(O)ccc12)NC1CCC(CN2CCC(c3c[nH]c4ccccc34)CC2)CC1` (configuration not stated), 1130 nM. To `C[C@@H]1C[C@@H]([C@H](O)CC2CC(=O)NC(=O)C2)C(=O)[C@@H](C)C1` [CYCLOHEXIMIDE] belongs 527 nM.

`CC1(C)N=C(N)N=C(N)N1OCc1cc(Cl)c(CON2C(N)=NC(N)=NC2(C)C)cc1Cl`: the XC50 turned out to be 37.8 nM. With `SC(=Nc1ccc(Cl)c(Cl)c1)NN=Cc1ccccn1` the figure was 768 nM. `CCOc1ccc(-c2nc(NC(=O)COc3ccc(OC)cc3)sc2C)cc1` yielded an XC50 of 541 nM. With `Cc1cccc2nc(-c3cccc(-c4cccc(NC(=O)C(C)CN(C)C)c4)c3)[nH]c12` (configuration not stated) the figure was 413 nM.

`CS(=O)(=O)c1ccc(-c2cc(C(F)(F)F)nc(N[C@@H]3CCCC[C@H]3OCc3ccccc3)n2)cc1` showed an XC50 of 60.4 nM.

`O=C(Nc1cccc(Cl)c1N1CCOCC1)C(Cl)(Cl)Cl` yielded an XC50 of 983 nM.

In turn, `CC(C)CN1CCC(N(C)c2cc(NC(=O)c3cccc(F)c3)ccn2)CC1` registered an XC50 of 848 nM. With `CCOc1ccc2nc3cc([N+](=O)[O-])ccc3c(N)c2c1` the figure was 139 nM. With `Cn1nccc1C(=O)NCCNCc1cccc(-c2csc(-c3nc4ccccc4[nH]3)c2)c1` the figure was 840 nM; with `FC(F)(F)c1ccc2[nH]ccc(=NN=CC=Cc3ccccc3)c2c1`, 1020 nM; with `CC(C)c1ccc(CN2CCCCC(NC(=O)c3cc(-c4ccccc4F)cs3)C2)cc1` (configuration not stated), 672 nM. To `CC(Nc1nncc(-c2cccc(F)c2)n1)c1ccc(F)cc1` (configuration not stated) belongs 791 nM; to `CC(C)(C)c1ccc(NC(=O)c2ccc(CN3CCCN(Cc4cccc(F)c4)CC3)cc2)cc1`, 1120 nM. For the compound `CCCc1cc(Cc2cnc(N)nc2N)cc2c1OC(C)C2C` (configuration not stated), the XC50 is 673 nM. With `O=S(=O)(c1ccc(Cl)cc1Cl)N1CCCCC(c2ccc(C(F)(F)F)cc2)=N1` the figure was 160 nM; with `COc1cccc(-c2[nH]c3ccccc3c2CN2CCC(c3c(C)cccc3C)CC2)c1`, 1020 nM. With `Nc1cccc(CNCc2ccc(-c3cccc(-c4nc5ccccc5[nH]4)c3)cc2)c1` the figure was 710 nM; with `O=C(Nc1ccccc1)N(Cc1cccc(-c2cccc(CNCCc3ccccc3)c2)c1)C1CCN(Cc2ccccc2)CC1`, 307 nM; with `NCCCNc1nc(Nc2cccc(C(N)=O)c2)c2c(=O)[nH]ccc2n1`, 594 nM. To `CN1CCCC(CN2CCN(Cc3ccc(-c4ccc(-c5nc6ccccc6[nH]5)cc4)cc3)CC2)C1` (configuration not stated) belongs 141 nM; to `COc1ccc(S(=O)(=O)NCCCC2CCN(CCCCCNC(=O)C=Cc3ccc(Cl)c(Cl)c3)CC2)cc1`, 1040 nM; to `Cc1[nH]c(C)c(-c2ccc(-c3cccc(C(F)(F)F)c3)nc2)c(=O)c1Br`, 140 nM. The compound `CCCCCCN1CCC(NCc2cccc(C#N)c2)CC1` displayed an XC50 of 778 nM. `Cc1ccccc1OCC(O)CN1CCC(C2CCN(CC(O)COc3ccccc3C)CC2)CC1` (configuration not stated) yielded an XC50 of 307 nM.

`Nc1c2c(nc3ccc(Oc4ccc(Br)cc4Br)cc13)CCCC2` showed an XC50 of 864 nM.

In the case of `Cc1ccc(C(=O)N2CCc3cc4nccc(N5CCN6CCC[C@H]6C5)c4cc32)cc1`, the XC50 amounted to 1100 nM.

Regarding `CC(C)CN1CCCN(Cc2cccc(NC(=O)c3ccc(Cl)c(Cl)c3)c2)CC1`, the XC50 came out at 893 nM. With `N#Cc1ccc(-c2ccc(C(=O)NCCCCN3CCC(c4cn(CCCO)c5ccccc45)CC3)cc2)cc1` the figure was 750 nM.

Regarding `Nc1nccc2ccc(-c3ccncc3)cc12`, the XC50 was 249 nM. To `CC(CC(=O)NCC1(c2ccc(F)cc2Cl)CCOCC1)C(=O)c1ccc(Cl)cc1` (configuration not stated) belongs 856 nM. `CCCCNS(=O)(=O)c1ccc(NC(=O)c2cc([N+](=O)[O-])ccc2Cl)cc1`: the XC50 was found to be 902 nM. With `O=C(NCCCCN1CCC(c2c[nH]c3ccc(-c4ccccc4)cc23)CC1)c1ccc(-c2ccccc2)cc1` the figure was 985 nM; with `CC(=O)c1nccc(C)c1N`, 929 nM; with `CO/C(=C\C=C\c1cc2cc(Cl)c(Cl)cc2[nH]1)C(=O)NCCCN1CCCC[C@H]1C`, 791 nM. To `COc1cc(/C=C/C(=O)NC2CCC(N3CCC(c4ccccc4C)CC3)CC2)cc(OC)c1` (configuration not stated) belongs 979 nM; to `CCOc1c(CNCCCNc2cc(O)c3ccccc3n2)cc(Br)cc1OC`, 1160 nM; to `O=C(NC12CC3CC(CC(C3)C1)C2)C(=O)c1c[nH]c2ccccc12`, 232 nM. `COc1c(CN2CCCC2)cccc1-c1cc2c(-c3ccc(C(=O)O)c(C(C)C)c3)ccnc2[nH]1` registered an XC50 of 439 nM. With `O=C(Nc1ccc(OC2CCN(Cc3ccsc3)CC2)c(Cl)c1)c1ccco1` the figure was 784 nM; with `O=C(/C=C/c1ccc(Cl)c(Cl)c1)NCCCCCN1CCC(CCCNC(=O)Nc2ccc(C(F)(F)F)cc2)CC1`, 872 nM.

Turning to `CC(=O)Oc1c(C2CCN(CCCCNC(=O)c3ccc(NC(=O)c4ccc(Cl)cc4)cc3)CC2)ccc2ccccc12`, the XC50 came to 881 nM. To `N#Cc1ccc2c(c1)CCN(CCC1CCC(NC(=O)Nc3ccnc4ccccc34)CC1)C2` (configuration not stated) belongs 377 nM; to `CC(=O)N(Cc1cccc(-c2ccc(CNCCc3ccccc3)cc2)c1)C1CCN(Cc2ccccc2)CC1`, 691 nM; to `O=C(Nc1cccnc1)c1cc(-c2cccnc2)nc2ccc(Br)cc12`, 640 nM.

`CCOCc1cnc(C)nc1NCC(=O)c1c(C)[nH]c2cc(C)ccc12` came in with an XC50 of 1210 nM.

Regarding `Cc1cc(CNCCCCCCNCc2ccc(-c3ccccc3)cc2)ccc1O`, the XC50 amounted to 897 nM. As for `Nc1cc(-c2cccc(Cl)c2)nn1-c1ccnc2cc(Cl)ccc12`, the XC50 amounted to 753 nM. To `Cc1cc(N[C@@H](Cc2ccccc2)C(=O)NCCCOC(C)C)nc(NCCc2ccc(F)cc2)n1` belongs 934 nM; to `O=[N+]([O-])c1ccc(Oc2c(Cl)cc(S(=O)(=O)NC3CCC(CN4CCC(c5c[nH]c6ccccc56)CC4)CC3)cc2Cl)c(Cl)c1` (configuration not stated), 758 nM; to `COc1ccc2c(c1)CC1CN(CCCCNC(=O)c3ccc(NC(=O)c4cc(Cl)cc(Cl)c4)cc3)CCN1C2` (configuration not stated), 767 nM. As for `Cc1ccc(NC(=O)c2cccc(CN3CCCN(Cc4cccc(O)c4)CC3)c2)cc1F`, the XC50 was 705 nM. To `COc1ccc(CNC(=O)Nc2cc3cc(-c4ccc(CN5CCCC5)cc4)ccc3n3c(C)nnc23)cc1` belongs 654 nM. With `O=C(NC1CCN(Cc2ccccc2)CC1)c1cc(-c2ccncc2)c(-c2ccc(Cl)c(O)c2)o1` the figure was 407 nM. `COc1ccc(OC)c2c1CCN(CCN1CCC(C(=O)Nc3ccc(C(=O)Nc4ccc(Cl)cc4)cc3)CC1)C2`: the XC50 was 582 nM. `CC(C)c1ccc(CN2CCC(CNC(=O)c3cc(-c4cccc(Cl)c4)cs3)C2)cc1` (configuration not stated): the XC50 is 752 nM. With `O=C(Cc1c(-c2ccccc2)[nH]c2ccccc12)NC1CCC(CN2CCC(c3c[nH]c4ccccc34)CC2)CC1` (configuration not stated) the figure was 476 nM; with `COc1ccc2c(c1)S(=O)(=O)N=C(N1CCCC1c1ccc(Cl)c(Cl)c1)N2C` (configuration not stated), 1280 nM. To `CC(C)(C)c1ccc(CN2CCC(NC(=O)c3ccc(-c4cccc(F)c4)s3)CC2)cc1` belongs 1090 nM; to `Cc1ccc2[nH]c3ccccc3c(=O)c2c1`, 863 nM. With `Cn1ccnc1CNC(=O)c1ccc(-c2cccc(-c3nc4cc(C(F)(F)F)ccc4[nH]3)c2)cc1` the figure was 723 nM; with `OCC1CCN(Cc2ccc(-c3ccc(-c4nc5cc(C(F)(F)F)ccc5[nH]4)s3)cc2)CC1`, 477 nM. Compound `CCCCCCCCCn1c(NCc2cc(Cl)ccc2O)nc2ccccc21` returned an XC50 of 825 nM.

With `Cc1ncccc1-c1cccc2c(NC(=O)Nc3ccc4nccc(N5CCN(C)CC5)c4c3)cccc12`, the XC50 came to 632 nM. Consider `Nc1nc(N)c2c(ccc3c2cnn3S(=O)(=O)N2CCCC2)n1`, for which the XC50 was 18.6 nM. To `Cc1ccc(Nc2cc(C)nn2-c2nc(C)cc(O)n2)cc1` belongs 864 nM; to `COc1ccc(-c2cc(NCc3ccc(-n4ccnc4)cc3)nc(Nc3ccccc3)n2)cc1`, 966 nM. To `Fc1ccc2[nH]c3c(NCCN4CCCCC4)ncnc3c2c1` belongs 834 nM; to `CC(C)CN(c1nc(C(=O)NNC(=O)[C@H](CC2CC2)NC(=O)c2cc3cc(OCCN(C)C)ccc3o2)cs1)C1CC1`, 1030 nM. With `Cc1c(C)n(C2CCCCC2)c2ncnc(OC3CCN(CC(=O)N4CCCC4)CC3)c12` the figure was 1450 nM; with `CC(=O)C1=NN(c2ccc(Cl)cc2)C(c2cccs2)N1c1ccccc1` (configuration not stated), 397 nM. The compound `CCN(CCCN1CCCCC1)c1cc(C)nc(Nc2ccc(C)cc2)n1` yielded an XC50 of 411 nM. With `O=C(NCC1CCN(Cc2cccc(F)c2)C1)c1cc(-c2cccc(C(F)(F)F)c2)cs1` (configuration not stated) the figure was 992 nM. To `CCCC1N=C(N)N=C(N)N1c1cccc(C(F)(F)F)c1` (configuration not stated) belongs 594 nM; to `O=C(Nc1cc2cc(-c3ccc(CN4CCCCC4)cc3)ccc2n2cnnc12)NC1CCCC1`, 1520 nM; to `C=CCN1C(=O)c2[nH]nc(-c3cc(C)c(C)cc3O)c2C1c1cccc(Br)c1` (configuration not stated), 1160 nM. To `N#Cc1cccc(C(=O)Nc2cccc(-c3ccc(C(=O)NCCCN4CCOCC4)cc3)c2)c1` belongs 749 nM; to `CC(CCc1ccccc1)NCC(O)c1cccc(C(F)(F)F)c1` (configuration not stated), 709 nM.
